# Results published in PMC6518791, “Gluconate suppresses seizure activity in developing brains by inhibiting CLC-3 chloride channels” (Molecular Brain, 2019).
# Target: T1, CLC-3 Cl^− channels (neonatal mouse hippocampal CA3 pyramidal neurons) (Mus musculus, UniProt P51791)
# T1 construct: gene Clcn3; native channel, CA3 pyramidal neurons in hippocampal slices (P10-12); current largely absent in Clcn3-/- neurons
# T1 sequence (P51791 1-818): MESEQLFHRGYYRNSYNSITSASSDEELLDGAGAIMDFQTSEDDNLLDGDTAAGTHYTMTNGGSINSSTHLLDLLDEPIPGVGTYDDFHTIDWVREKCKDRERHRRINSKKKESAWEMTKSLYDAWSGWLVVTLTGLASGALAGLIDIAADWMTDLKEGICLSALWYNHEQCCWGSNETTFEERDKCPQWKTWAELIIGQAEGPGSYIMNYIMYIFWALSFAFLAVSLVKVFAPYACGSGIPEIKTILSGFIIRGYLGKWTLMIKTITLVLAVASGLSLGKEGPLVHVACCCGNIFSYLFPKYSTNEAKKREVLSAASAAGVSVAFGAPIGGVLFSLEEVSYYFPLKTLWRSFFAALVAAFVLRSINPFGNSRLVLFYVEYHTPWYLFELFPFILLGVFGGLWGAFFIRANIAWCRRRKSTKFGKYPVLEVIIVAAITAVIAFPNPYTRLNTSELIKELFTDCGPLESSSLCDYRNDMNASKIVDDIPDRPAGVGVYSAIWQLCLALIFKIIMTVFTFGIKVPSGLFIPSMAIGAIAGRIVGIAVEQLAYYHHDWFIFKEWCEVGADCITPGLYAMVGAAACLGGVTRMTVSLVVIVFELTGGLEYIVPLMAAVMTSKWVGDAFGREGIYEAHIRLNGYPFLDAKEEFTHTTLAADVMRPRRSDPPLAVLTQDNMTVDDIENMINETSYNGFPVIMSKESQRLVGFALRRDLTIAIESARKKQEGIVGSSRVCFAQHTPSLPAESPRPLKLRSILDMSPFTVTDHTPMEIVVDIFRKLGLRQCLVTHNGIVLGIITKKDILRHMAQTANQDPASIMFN
# Assay: whole-cell patch clamp, voltage-dependent Cl- current in brain slices
# Details: total neuronal Cl- current, no knockout control told
smiles,measurement,value
C[C@@H](O)CC(=O)O [β-HB],IC50,~6.2 mM
